Holding throughout (type): biochemical
In assay [1] the target is T1, SIK2 (Homo sapiens, UniProt Q9H0K1).
T1 construct: purchased ThermoFisher Scientific PV4792
Kind of assay: 33P radioactive kinase assay, SIK2. Further: AMARA 5 µM, 10 µM ATP. As for the experimental part:
(§1) The principle of the ^33P radioactive kinase assay consists in measuring the incorporated ^33P into the substrate AMARA peptide when phosphorylated by SIK1, SIK2 or SIK3 using [^33P]-g-ATP, which correlates with kinase activity.
(§2) The test compounds are prepared as a serial dilution of 10 point dose responses with 1/5 dilution steps in 100% DMSO starting from 2 mM highest concentration, diluted 1/20 in water and 5 μL is transferred to the assay plates (Greiner, Cat #651201).
(§3) 1% DMSO and 10 μM staurosporine final concentrations are used as negative and positive controls.
(§4) 11 μL of enzyme-substrate mixture is added on the assay plates. The reactions are started by adding 9 μL ATP mixture, consisting of non-labeled and ^33P-labeled ATP, on the assay plates.
(§5) The reactions are stopped by adding 25 μL phosphoric acid (150 mM) to the reactions.
(§6) The completely terminated kinase reactions are transferred using a harvester on pre-wetted UniFilter-96 plates (UniFilter-96 GF/B, PerkinElmer Inc., Cat #6005177).
(§7) After harvesting the kinase reactions, the filter plates are washed 6 times with phosphoric acid (75 mM). The back of the UniFilter-96 plates are sealed and 40 μL MicroScint-20 (PerkinElmer Inc., Cat #6013621) is added to each well. The top of the plates are sealed with TopSeal-A. Read-out is performed with a TopCount instrument (PerkinElmer Inc.).
(§8) Raw data are generated following the read-out performed on the TopCount, plotted to generate dose response curves to calculate percentage inhibition (PIN) and average IC50 for each SIK homologue which are reported in the table below.

Assay [2] addresses T2, SIK1 (Homo sapiens, UniProt P57059).
T2 construct: purchased Carna Biosciences 02-131
Description: 33P radioactive kinase assay, SIK1. As for the experimental part:
as §1, §2, §3, §4, §5, §6, §7, §8

For assay [3], the target named is T3, SIK3 (Homo sapiens, UniProt Q9Y2K2).
T3 construct: purchased SignalChem S12-11G-100
Kind of assay: 33P radioactive kinase assay, SIK3. The conditions noted are these: 33P radioactive assay; AMARA 7 μM; 15 μM ATP; 80 min; average IC50. As for the experimental part:
as §1, §2, §3, §4, §5, §6, §7, §8

Assay [4] has as its target T2, SIK1. Description: ADP-Glo kinase assay, SIK1. A digest of the protocol: (§9)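 Luminescent ADP-Glo readout of ADP formed. Enzyme-substrate mix with ATP, reaction 120 min at RT, then 40 min ATP depletion and 30 min detection. Controls were 1% DMSO (negative) and 10 μM staurosporine (positive), both final.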
A general note: ADP-Glo turns the ADP formed in a reaction into a luminescent signal.

In assay [5] the target is T1, SIK2. Description: ADP-Glo kinase assay, SIK2. In a few lines:
as §9

In assay [6] the target is T3, SIK3. Kind of assay: ADP-Glo kinase assay, SIK3. In a few lines:
as §9

Each structure is given as a SMILES string.

T3 sequence (Q9Y2K2 59-365 limits assumed): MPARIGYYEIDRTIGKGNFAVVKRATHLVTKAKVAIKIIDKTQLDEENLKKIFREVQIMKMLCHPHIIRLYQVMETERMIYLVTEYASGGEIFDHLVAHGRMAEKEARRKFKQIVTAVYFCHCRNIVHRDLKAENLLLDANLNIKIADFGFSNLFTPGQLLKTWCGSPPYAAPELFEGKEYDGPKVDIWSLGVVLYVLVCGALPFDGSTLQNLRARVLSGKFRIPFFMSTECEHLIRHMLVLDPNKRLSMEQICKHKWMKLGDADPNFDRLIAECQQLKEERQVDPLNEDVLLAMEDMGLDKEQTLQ
T2 sequence (P57059 whole entry): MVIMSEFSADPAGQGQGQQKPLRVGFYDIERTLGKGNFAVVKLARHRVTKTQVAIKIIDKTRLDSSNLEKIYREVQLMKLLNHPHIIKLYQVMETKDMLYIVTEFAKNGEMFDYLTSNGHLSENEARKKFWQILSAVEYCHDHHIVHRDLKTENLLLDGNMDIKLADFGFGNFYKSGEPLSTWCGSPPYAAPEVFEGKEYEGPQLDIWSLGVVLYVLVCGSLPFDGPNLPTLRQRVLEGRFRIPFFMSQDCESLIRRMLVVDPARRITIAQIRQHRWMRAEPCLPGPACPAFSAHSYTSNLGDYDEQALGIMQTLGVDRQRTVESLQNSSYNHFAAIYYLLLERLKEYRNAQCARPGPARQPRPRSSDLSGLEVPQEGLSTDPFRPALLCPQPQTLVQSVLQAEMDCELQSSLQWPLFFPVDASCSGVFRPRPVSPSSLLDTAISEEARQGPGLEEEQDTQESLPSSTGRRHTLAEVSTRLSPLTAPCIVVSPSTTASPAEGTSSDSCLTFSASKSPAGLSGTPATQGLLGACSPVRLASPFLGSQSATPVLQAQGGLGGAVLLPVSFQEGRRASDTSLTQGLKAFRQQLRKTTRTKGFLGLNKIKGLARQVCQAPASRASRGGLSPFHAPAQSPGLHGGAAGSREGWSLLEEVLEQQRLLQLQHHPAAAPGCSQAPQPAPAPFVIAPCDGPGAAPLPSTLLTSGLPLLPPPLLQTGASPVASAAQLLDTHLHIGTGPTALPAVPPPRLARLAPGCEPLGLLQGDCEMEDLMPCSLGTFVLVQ
T1 sequence (Q9H0K1 whole entry): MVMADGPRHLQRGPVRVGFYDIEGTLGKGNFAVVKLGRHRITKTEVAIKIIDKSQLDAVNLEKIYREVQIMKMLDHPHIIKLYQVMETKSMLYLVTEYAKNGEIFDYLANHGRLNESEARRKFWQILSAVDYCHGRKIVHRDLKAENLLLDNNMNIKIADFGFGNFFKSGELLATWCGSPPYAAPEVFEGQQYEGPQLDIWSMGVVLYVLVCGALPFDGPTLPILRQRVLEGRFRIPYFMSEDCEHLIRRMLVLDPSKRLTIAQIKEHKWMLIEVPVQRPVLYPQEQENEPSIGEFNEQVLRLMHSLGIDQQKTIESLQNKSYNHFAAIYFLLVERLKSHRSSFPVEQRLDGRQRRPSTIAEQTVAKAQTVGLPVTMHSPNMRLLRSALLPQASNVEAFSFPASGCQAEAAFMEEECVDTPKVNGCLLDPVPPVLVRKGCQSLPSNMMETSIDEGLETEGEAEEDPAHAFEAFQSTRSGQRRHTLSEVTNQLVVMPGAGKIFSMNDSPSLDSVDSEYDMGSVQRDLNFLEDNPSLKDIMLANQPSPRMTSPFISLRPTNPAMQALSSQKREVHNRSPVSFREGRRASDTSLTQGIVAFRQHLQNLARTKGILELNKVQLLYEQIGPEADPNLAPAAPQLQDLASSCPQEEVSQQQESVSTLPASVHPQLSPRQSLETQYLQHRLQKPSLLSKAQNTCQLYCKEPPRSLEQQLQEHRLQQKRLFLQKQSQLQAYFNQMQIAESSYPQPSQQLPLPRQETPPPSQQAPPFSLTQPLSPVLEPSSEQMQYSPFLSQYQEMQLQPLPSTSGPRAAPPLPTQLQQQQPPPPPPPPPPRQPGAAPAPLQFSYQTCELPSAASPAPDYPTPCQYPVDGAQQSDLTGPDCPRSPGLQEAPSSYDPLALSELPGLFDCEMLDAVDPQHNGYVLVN

The IC50 is the concentration that inhibits the measured activity by half. For `COc1cc(-n2cnc3cc(C4CCOCC4)ccc32)cc(OC)c1C(=O)NCC(F)(F)F` [Cpd 5, 2,6-dimethoxy-4-(5-tetrahydropyran-4-ylbenzimidazol-1-yl)-N-(2,2,2-trifluoroethyl)benzamide], the concentration for half-maximal inhibition (IC50) was over 0.5 µM at SIK2 [1], over 0.5 µM at SIK1 [2] and 0.1 to 0.5 µM on SIK3 [3].
With `COc1cc(-n2cnc3cc(C(C)C#N)ccc32)cc(OC)c1C(=O)NCC(F)(F)F` (stereo not drawn) [Cpd 15, 4-[5-(1-cyanoethyl)benzimidazol-1-yl]-2,6-dimethoxy-N-(2,2,2-trifluoroethyl)benzamide], the IC50 on SIK2 [1], at SIK1 [2] and on SIK3 [3] was over 0.5 µM throughout.
In the case of `COc1cc(-n2cnc3cc(C4CCN(C)CC4)ccc32)cc(OC)c1C(=O)NCC(F)(F)F` [Cpd 1, 2,6-dimethoxy-4-[5-(1-methyl-4-piperidyl)benzimidazol-1-yl]-N-(2,2,2-trifluoroethyl)benzamide], the IC50 at SIK2 [1], on SIK1 [2] and on SIK3 [3] was over 0.5 µM in each case.
`COc1cc(-c2cnc3cc(C(C)(C)C#N)ccn23)cc(OC)c1C(=O)N1CC(F)(F)C1` [Cpd 18, 2-[3-[4-(3,3-difluoroazetidine-1-carbonyl)-3,5-dimethoxy-phenyl]imidazo[1,2-a]pyridin-7-yl]-2-methyl-propanenitrile]: the half-inhibitory concentration (IC50) was over 0.5 µM on SIK2 [1]; over 0.5 µM at SIK1 [4]; over 0.5 µM against SIK2 [5]; over 0.5 µM on SIK1 [2]; 0.01 to 0.1 µM at SIK3 [6]; 0.01 to 0.1 µM on SIK3 [3].
For the compound `COc1cc(-n2cnc3cc(C4CCCN(C)C4)ccc32)cc(OC)c1C(=O)NCC(F)(F)F` (stereo not drawn) [Cpd 6, 2,6-dimethoxy-4-[5-(1-methyl-3-piperidyl)benzimidazol-1-yl]-N-(2,2,2-trifluoroethyl)benzamide], the IC50 on SIK2 [1] was over 0.5 µM; on SIK1 [2], over 0.5 µM; on SIK3 [3], 0.1 to 0.5 µM.
On to `COc1cc(-c2cnc3cc(C(C)(C)C(N)=O)ccn23)cc(OC)c1C(=O)NC1CC1` [Cpd 29, 4-[7-(2-amino-1,1-dimethyl-2-oxo-ethyl)imidazo[1,2-a]pyridin-3-yl]-N-cyclopropyl-2,6-dimethoxy-benzamide], for which the IC50 on SIK2 [1] is over 0.5 µM; on SIK1 [2], over 0.5 µM; at SIK3 [3], 0.01 to 0.1 µM.
For the compound `COc1cc(-n2cnc3cc(C4(C#N)CCC4)ccc32)cc(OC)c1C(=O)NC1CC1` [Cpd 14, 4-[5-(1-cyanocyclobutyl)benzimidazol-1-yl]-N-cyclopropyl-2,6-dimethoxy-benzamide], the IC50 at SIK2 [1], at SIK1 [2] and at SIK3 [3] was over 0.5 µM in each case.
For the compound `COc1cc(-n2cnc3cc(C4CCN(CC#N)CC4)ccc32)cc(OC)c1C(=O)NCC(F)(F)F` [Cpd 4, 4-[5-[1-(cyanomethyl)-4-piperidyl]benzimidazol-1-yl]-2,6-dimethoxy-N-(2,2,2-trifluoroethyl)benzamide], the half-inhibitory concentration (IC50) is over 0.5 µM on SIK2 [1], over 0.5 µM on SIK1 [2] and 0.1 to 0.5 µM on SIK3 [3].
As to `COc1cc(-c2cnc3cc(C4CCN(C)CC4)ccn23)cc(OC)c1C(=O)NCC(F)(F)F` [Cpd 22, 2,6-dimethoxy-4-[7-(1-methyl-4-piperidyl)imidazo[1,2-a]pyridin-3-yl]-N-(2,2,2-trifluoroethyl)benzamide], the 50% inhibitory concentration (IC50) at SIK2 [1] is 0.1 to 0.5 µM; on SIK1 [4] it was over 0.5 µM; on SIK2 [5], 0.1 to 0.5 µM; at SIK1 [2], over 0.5 µM; against SIK3 [6], 0.01 to 0.1 µM; on SIK3 [3] it was 0.01 to 0.1 µM.
For the compound `COc1cc(-n2cnc3cc(C(C)(C)C#N)ccc32)cc(OC)c1C(=O)NCC(F)(F)F` [Cpd 10, 4-[5-(1-cyano-1-methyl-ethyl)benzimidazol-1-yl]-2,6-dimethoxy-N-(2,2,2-trifluoroethyl)benzamide], the IC50 on SIK2 [1] was over 0.5 µM; at SIK1 [4], over 0.5 µM; on SIK2 [5], over 0.5 µM; at SIK1 [2], over 0.5 µM; against SIK3 [6], 0.1 to 0.5 µM; on SIK3 [3], 0.1 to 0.5 µM.
With `COc1cc(-n2cnc3cc(C4CCCN(C(=O)OC(C)(C)C)C4)ccc32)cc(OC)c1C(=O)NCC(F)(F)F` (stereo not drawn) [Cpd 7, tert-butyl 3-[1-[3,5-dimethoxy-4-(2,2,2-trifluoroethylcarbamoyl)phenyl]benzimidazol-5-yl]piperidine-1-carboxylate], the IC50 at SIK2 [1], at SIK1 [2] and on SIK3 [3] was over 0.5 µM each time.
Take `COc1cc(-n2cnc3cc(C4(C#N)CCC4)ccc32)cc(OC)c1C(=O)NCC(F)(F)F` [Cpd 13, 4-[5-(1-cyanocyclobutyl)benzimidazol-1-yl]-2,6-dimethoxy-N-(2,2,2-trifluoroethyl)benzamide]: the IC50 on SIK2 [1], on SIK1 [2] and at SIK3 [3] was over 0.5 µM in each case.
Take `COc1cc(-n2cnc3cc(C4CCCNC4)ccc32)cc(OC)c1C(=O)NCC(F)(F)F` (stereo not drawn) [Cpd 8, 2,6-dimethoxy-4-[5-(3-piperidyl)benzimidazol-1-yl]-N-(2,2,2-trifluoroethyl)benzamide]: the IC50 on SIK2 [1] is over 0.5 µM; at SIK1 [2] it was over 0.5 µM; at SIK3 [3] it was 0.1 to 0.5 µM.
With `COc1cc(-n2cnc3cc(C4CCN(C(=O)OC(C)(C)C)CC4)ccc32)cc(OC)c1C(=O)NCC(F)(F)F` [Cpd 2, tert-butyl 4-[1-[3,5-dimethoxy-4-(2,2,2-trifluoroethylcarbamoyl)phenyl]benzimidazol-5-yl]piperidine-1-carboxylate], the IC50 on SIK2 [1] is 0.1 to 0.5 µM; on SIK1 [2] it was over 0.5 µM; on SIK3 [3] it was 0.1 to 0.5 µM.
For `COc1cc(-n2cnc3cc(C4CCNCC4)ccc32)cc(OC)c1C(=O)NCC(F)(F)F` [Cpd 3, 2,6-dimethoxy-4-[5-(4-piperidyl)benzimidazol-1-yl]-N-(2,2,2-trifluoroethyl)benzamide], the IC50 on SIK2 [1] is 0.1 to 0.5 µM; at SIK1 [2], over 0.5 µM; on SIK3 [3] it was 0.1 to 0.5 µM.
On to `COc1cc(-c2cnc3cc(C4CCCN(C(=O)OC(C)(C)C)C4)ccn23)cc(OC)c1C(=O)NCC(F)(F)F` (stereo not drawn) [Cpd 21, tert-butyl 3-[3-[3,5-dimethoxy-4-(2,2,2-trifluoroethylcarbamoyl)phenyl]imidazo[1,2-a]pyridin-7-yl]piperidine-1-carboxylate], for which the results for the IC50 at SIK2 [1], at SIK1 [2] and on SIK3 [3] were 0.1 to 0.5 µM, over 0.5 µM and 0.01 to 0.1 µM, respectively.
Regarding `COc1cc(-n2cnc3cc(C4CCCN(CC#N)C4)ccc32)cc(OC)c1C(=O)NCC(F)(F)F` (stereo not drawn) [Cpd 9, 4-[5-[1-(cyanomethyl)-3-piperidyl]benzimidazol-1-yl]-2,6-dimethoxy-N-(2,2,2-trifluoroethyl)benzamide], the results for the IC50 at SIK2 [1], at SIK1 [2] and at SIK3 [3] were over 0.5 µM, over 0.5 µM and 0.1 to 0.5 µM, respectively.
On to `COc1cc(-n2cnc3cc(C(C)(C)C#N)ccc32)cc(OC(F)F)c1C(=O)NC1CC1` [Cpd 12, 4-[5-(1-cyano-1-methyl-ethyl)benzimidazol-1-yl]-N-cyclopropyl-2-(difluoromethoxy)-6-methoxy-benzamide], for which the concentration for half-maximal inhibition (IC50) was over 0.5 µM on SIK2 [1], over 0.5 µM at SIK1 [2] and 0.1 to 0.5 µM at SIK3 [3].
With `CCNC(=O)c1c(OC)cc(-c2cnc3cc(C(C)(C)C(N)=O)ccn23)cc1OC` [Cpd 31, 4-[7-(2-amino-1,1-dimethyl-2-oxo-ethyl)imidazo[1,2-a]pyridin-3-yl]-N-ethyl-2,6-dimethoxy-benzamide], the IC50 at SIK2 [1] was over 0.5 µM; on SIK1 [2], over 0.5 µM; on SIK3 [3] it was 0.1 to 0.5 µM.

The values above are taken from patent US12391679B2, “Benzamide-substituted bicyclic imidazo- and pyrazolo-fused -pyridine, -pyrimide, and -pyridazine compounds for treatment of inflammatory diseases” (ONCO3R Therapeutics BV, priority 2019, dated 2025).
